From patent US11370776B2, “Sulfonylureas and sulfonylthioureas as NLRP3 inhibitors” (Inflazome Limited, priority 2017, dated 2022) come the findings set out here.

Where a name gives a salt, the structure may show the parent alone.

Assay [1] has as its target T1, NLRP3 (Homo sapiens, UniProt Q96P20). The assay can be described thus: Human whole blood IL1β release assay. It is filed as cell-based. Details: Human whole blood in Li-heparin tubes was obtained from healthy donors; from tissue; host or cells: human whole blood from healthy donors, LPS-primed, nigericin-stimulated. The conditions noted are these: human whole blood, 1 μg/ml LPS, nigericin 10 μM, IL-1β release; read-out: HWB IC50. As for the experimental part:
Human Whole Blood IL1β Release Assay
For systemic delivery, the ability to inhibit NLRP3 when the compounds are present within the bloodstream is of great importance. For this reason, the NLRP3 inhibitory activity of a number of compounds in human whole blood was investigated in accordance with the following protocol.
Human whole blood in Li-heparin tubes was obtained from healthy donors from a volunteer donor panel. • 1. […] Incubate for 3 hrs at 37° C., 5% CO2 • 4. Add 10 μl Nigericin (Sigma # N7143) (10 μM FAC) to all wells • 5. Incubate for 1 hr at 37° C., 5% CO2 • 6. At the end of the incubation period, spin plates at 300×g for 5 mins to pellet cells and remove 20 μl of supernatant and add to 96-well v-bottom plates for IL-1β analysis (note: these plates containing the supernatants can be stored at −80° C. to be analysed at a later date) • 7. IL-1β was measured according to the manufacturer protocol (Perkin Elmer-AlphaLisa IL-1 Kit AL220E-5000) • 8. IC50 data is fitted to a non-linear regression equation (log inhibitor vs response-variable slope 4-parameters)

The target in assay [2] is T1, NLRP3. As to the kind of experiment: THP-1 cells pyroptosis assay. The assay is classed as cell-based. More on the design: Seed THP-1 cells (25,000 cells/well) containing 1.0 μg/ml LPS; host or cells: THP-1 cells, LPS-primed, nigericin-stimulated. The conditions noted are these: THP-1 cells, 1.0 μg/ml LPS, nigericin 5 μM, pyroptosis read with resazurin; read-out: THP IC50. As for the experimental part: The cells were routinely passaged and grown to confluency (˜10^6 cells/ml). On the day of the experiment, THP-1 cells were harvested and resuspended into RPMI medium (without FBS). The cells were then counted and viability (>90%) checked by Trypan blue (Sigma # T8154). […] To this diluted cell solution was added LPS (Sigma # L4524) to give a 1 μg/ml Final Assay Concentration (FAC). 40 μl of the final preparation was aliquoted into each well of a 96-well plate. The plate thus prepared was used for compound screening. THP-1 Cells Pyroptosis Assay The following method step-by-step assay was followed for compound screening. • 1. […] Add 5 μl nigericin (Sigma # N7143) (FAC 5 μM) to all wells • 5. […] At the end of the incubation period, spin plates at 300×g for 3 mins and remove supernatant • 7. Then add 50 μl of resazurin (Sigma # R7017) (FAC 100 μM resazurin in RPMI medium without FBS) and incubate plates for a further 1-2 hrs at 37° C. and 5% CO2 • 8. […] IC50 data is fitted to a non-linear regression equation (log inhibitor vs response-variable slope 4-parameters) [table]
Background: The colour change of resazurin is a common sign of viable cells or microbes.

T1 sequence (Q96P20 whole entry): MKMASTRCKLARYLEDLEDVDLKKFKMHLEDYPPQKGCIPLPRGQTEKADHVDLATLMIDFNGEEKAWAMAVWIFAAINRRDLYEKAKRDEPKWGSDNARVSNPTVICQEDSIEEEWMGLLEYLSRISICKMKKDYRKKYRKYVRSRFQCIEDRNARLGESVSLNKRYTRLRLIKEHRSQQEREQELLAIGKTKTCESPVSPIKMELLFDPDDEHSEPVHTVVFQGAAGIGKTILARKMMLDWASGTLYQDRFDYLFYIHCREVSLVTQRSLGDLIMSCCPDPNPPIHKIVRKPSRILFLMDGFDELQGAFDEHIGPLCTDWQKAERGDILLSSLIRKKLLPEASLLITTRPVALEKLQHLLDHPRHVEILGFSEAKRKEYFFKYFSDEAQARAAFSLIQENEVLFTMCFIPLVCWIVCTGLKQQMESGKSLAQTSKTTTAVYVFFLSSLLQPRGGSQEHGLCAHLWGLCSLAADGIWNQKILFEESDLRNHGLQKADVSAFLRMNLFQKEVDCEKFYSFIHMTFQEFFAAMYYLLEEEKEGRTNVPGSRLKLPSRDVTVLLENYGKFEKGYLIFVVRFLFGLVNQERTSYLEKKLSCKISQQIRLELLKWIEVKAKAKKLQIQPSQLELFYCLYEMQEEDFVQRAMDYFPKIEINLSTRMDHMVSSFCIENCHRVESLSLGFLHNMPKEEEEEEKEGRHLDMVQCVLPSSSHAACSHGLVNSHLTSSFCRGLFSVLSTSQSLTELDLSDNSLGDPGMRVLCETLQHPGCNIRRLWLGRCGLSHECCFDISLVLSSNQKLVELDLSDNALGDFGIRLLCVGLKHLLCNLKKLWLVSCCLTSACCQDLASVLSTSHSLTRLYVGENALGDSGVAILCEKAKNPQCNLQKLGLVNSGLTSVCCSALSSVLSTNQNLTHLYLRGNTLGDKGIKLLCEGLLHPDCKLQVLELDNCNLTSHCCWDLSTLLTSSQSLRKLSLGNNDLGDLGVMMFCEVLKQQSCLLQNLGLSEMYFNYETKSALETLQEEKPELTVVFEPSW

`COc1cc(-c2ccc3c(c2NC(=O)NS(=O)(=O)c2ccnc(CN(C)C)c2)CCC3)ccn1` [Example 59, 2-((Dimethylamino)methyl)-N-((5-(2-methoxypyridin-4-yl)-2,3-dihydro-1H-inden-4-yl)carbamoyl)pyridine-4-sulfonamide, sodium salt]: the IC50 (in general, the concentration at which inhibition is half-maximal) in assay [1] is < 2.5 µM; in assay [2], < 0.8 µM.
For `COc1cc(-c2ccc3c(c2NC(=O)NS(=O)(=O)c2ccnc(C(C)C)c2)CCC3)ccn1` [Example 60, 2-Isopropyl-N-((5-(2-methoxypyridin-4-yl)-2,3-dihydro-1H-inden-4-yl)carbamoyl)pyridine-4-sulfonamide, sodium salt] the same measures were < 2.5 µM and < 0.8 µM.
